From US5739278A, “Compositions for protein tyrosine phosphatases” (University of Washington, priority 1995, dated 1998)
Where a SMILES comes first, the peptide text is derived from it.

Experiments:
Assay in all cases: Phosphatase assay with ENDY(P)INASL as substrate
Format in all cases: biochemical
RPTPα = target: T1, RPTPα (Homo sapiens, UniProt P18433)
T1 construct: made in house; host or cells: Sf9 cells (baculovirus)
Description: (§1) The tyrosine phosphatases TC.PTP, TCΔC11.PTP, and RPTPα were purified from infected Sf9 cells as described recently (Zander et al., Biochemistry 30: 6964-6970, 1991; Daum et al., J. Biol. Chem. 266: 12211-12215, 1991). The 37 kDa form of PTP1B and CD45 were purified from placenta and spleen, respectively (according to Tonks et al., J. Biol. Chem. 263: 6722-6730, 1988; Tonks et al., Biochemistry 27: 8695-8701, 1988).
(§2) Phosphatase assays with ENDY(P)INASL were performed in buffer M6. Aliquots of 30 μl or 60 μl containing the phosphopeptide, the phosphatase (-beads) and effectors were incubated for 10 minutes at 30° C. The reaction was stopped by adding 200 μl of a suspension of 10% activated, acid-washed Norit A charcoal (v/v) in 0.9N HCl, 0.1M pyrophosphate and 2 mM NaH2 PO4 (according to Streuli et al., Proc. Natl. Acad. Sci. USA 86: 8698-8702, 1989). The mixture was cleared by 10-minute centrifugation and the radioactivity of 150 μl of the supernate was determined. Assays with MBP and RCML were performed as described in Tonks et al., J. Biol. Chem. 263: 6722-6730, 1988. Protein concentration was determined with BSA as standard (Bradford, Anal. Biochem. 72: 248-254, 1976).

PTP1B = target: T2, PTP1B (Homo sapiens, UniProt P18031)
T2 construct: The 37 kDa form of PTP1B; from tissue; host or cells: placenta
T2 sequence (P18031 1-321 limits assumed): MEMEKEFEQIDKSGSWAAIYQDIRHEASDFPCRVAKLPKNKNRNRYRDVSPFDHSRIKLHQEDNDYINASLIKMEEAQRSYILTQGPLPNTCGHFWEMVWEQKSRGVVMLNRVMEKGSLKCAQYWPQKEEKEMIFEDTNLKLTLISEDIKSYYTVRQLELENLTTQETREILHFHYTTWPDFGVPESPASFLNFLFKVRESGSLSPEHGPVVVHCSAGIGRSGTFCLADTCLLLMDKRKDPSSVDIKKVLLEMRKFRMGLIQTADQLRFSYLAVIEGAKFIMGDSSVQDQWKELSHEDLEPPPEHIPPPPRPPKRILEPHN
Description: as §1, §2

TCΔC11.PTP = target: T3, TCΔC11.PTP (Homo sapiens, UniProt P17706)
T3 construct: both the wild type and truncated forms of the T-cell phosphatase; made in house; host or cells: Sf9 cells (baculovirus)
T3 sequence (P17706 1-317 limits assumed): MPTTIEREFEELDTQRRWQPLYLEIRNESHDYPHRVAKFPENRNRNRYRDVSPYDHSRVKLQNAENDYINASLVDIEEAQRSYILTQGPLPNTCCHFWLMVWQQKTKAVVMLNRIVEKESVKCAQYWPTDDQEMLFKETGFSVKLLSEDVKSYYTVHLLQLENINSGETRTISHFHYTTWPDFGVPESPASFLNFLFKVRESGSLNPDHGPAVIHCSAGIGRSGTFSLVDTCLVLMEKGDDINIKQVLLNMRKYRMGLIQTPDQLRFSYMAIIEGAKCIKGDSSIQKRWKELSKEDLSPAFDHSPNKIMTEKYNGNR
Description: as §1, §2

CD45 = target: T4, CD45 (Homo sapiens, UniProt P08575)
T4 construct: CD45 were purified from placenta and spleen, respectively; from tissue; host or cells: spleen
T4 sequence (P08575 26-1306): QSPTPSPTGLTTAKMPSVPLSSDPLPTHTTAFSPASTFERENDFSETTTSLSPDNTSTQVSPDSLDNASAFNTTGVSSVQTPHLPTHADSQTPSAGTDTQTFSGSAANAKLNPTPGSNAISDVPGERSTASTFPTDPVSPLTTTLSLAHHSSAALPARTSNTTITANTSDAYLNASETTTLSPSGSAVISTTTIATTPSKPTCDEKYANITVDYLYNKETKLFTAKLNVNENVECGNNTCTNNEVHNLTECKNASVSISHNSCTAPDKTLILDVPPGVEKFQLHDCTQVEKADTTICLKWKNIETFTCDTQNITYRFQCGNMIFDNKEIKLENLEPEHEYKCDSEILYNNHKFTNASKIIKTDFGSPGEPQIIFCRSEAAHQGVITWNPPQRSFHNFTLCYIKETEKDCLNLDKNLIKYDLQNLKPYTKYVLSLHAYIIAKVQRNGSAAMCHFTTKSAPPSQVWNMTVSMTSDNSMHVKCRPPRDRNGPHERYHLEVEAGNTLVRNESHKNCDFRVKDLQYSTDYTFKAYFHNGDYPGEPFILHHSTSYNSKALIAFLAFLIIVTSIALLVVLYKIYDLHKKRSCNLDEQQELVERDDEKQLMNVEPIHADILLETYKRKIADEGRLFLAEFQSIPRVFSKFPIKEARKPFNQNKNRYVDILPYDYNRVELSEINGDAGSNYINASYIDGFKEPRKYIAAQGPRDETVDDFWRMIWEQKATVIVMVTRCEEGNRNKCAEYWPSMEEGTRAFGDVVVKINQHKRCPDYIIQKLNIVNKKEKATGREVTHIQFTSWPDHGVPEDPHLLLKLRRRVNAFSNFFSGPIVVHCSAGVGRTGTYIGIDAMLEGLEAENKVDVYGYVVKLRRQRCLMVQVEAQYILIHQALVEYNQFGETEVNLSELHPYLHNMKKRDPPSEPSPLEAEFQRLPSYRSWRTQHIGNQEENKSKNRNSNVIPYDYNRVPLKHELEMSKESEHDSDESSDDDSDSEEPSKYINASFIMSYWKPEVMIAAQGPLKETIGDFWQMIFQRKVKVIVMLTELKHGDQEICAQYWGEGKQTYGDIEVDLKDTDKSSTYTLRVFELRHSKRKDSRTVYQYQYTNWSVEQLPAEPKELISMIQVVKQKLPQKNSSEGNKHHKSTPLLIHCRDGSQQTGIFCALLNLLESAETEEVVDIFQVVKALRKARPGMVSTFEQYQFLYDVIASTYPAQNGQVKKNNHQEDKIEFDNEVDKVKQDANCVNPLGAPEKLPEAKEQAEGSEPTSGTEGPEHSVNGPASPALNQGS
Description: as §1, §2

TC.PTP = target: T5, TC.PTP (Homo sapiens, UniProt P17706); conditions: TC.PTP
T5 construct: made in house; host or cells: Sf9 cells (baculovirus)
T5 sequence (P17706 1-415): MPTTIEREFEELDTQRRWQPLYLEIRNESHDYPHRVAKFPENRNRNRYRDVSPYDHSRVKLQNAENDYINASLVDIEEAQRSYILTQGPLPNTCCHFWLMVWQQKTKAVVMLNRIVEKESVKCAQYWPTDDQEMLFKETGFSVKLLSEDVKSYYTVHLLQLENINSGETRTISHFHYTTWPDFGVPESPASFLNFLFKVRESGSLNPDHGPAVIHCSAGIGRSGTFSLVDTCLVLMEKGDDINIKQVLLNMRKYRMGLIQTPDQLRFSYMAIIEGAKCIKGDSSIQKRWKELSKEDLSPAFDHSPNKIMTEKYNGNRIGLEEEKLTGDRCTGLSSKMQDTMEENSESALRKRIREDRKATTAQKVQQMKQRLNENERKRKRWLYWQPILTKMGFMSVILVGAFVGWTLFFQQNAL
Description: as §1, §2

T1 sequence (P18433 20-802): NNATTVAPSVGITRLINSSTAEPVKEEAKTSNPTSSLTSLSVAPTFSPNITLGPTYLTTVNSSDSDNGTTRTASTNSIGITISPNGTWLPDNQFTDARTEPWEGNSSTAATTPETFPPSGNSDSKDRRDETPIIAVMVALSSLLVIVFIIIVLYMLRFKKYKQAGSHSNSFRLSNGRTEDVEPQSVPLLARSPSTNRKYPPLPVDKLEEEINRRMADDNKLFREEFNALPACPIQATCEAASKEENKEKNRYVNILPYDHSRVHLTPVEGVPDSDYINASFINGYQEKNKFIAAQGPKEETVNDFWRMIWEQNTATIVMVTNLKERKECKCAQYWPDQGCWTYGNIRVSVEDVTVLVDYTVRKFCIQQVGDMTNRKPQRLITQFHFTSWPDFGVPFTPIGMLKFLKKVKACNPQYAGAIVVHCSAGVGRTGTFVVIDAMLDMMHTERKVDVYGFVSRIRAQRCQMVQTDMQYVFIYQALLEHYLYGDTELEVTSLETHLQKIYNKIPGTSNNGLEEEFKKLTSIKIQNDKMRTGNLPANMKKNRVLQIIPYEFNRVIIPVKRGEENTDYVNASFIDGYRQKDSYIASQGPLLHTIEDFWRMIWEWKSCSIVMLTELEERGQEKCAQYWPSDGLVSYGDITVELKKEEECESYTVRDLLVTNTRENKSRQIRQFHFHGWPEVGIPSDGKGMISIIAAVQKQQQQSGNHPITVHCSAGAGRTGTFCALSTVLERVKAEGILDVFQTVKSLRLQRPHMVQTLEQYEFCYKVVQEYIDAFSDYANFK

SMILES	Phosphatase activity in percent of the value obtained in the absence of effectors (RPTPα; effector 1.0 mM)	Phosphatase activity in percent of the value obtained in the absence of effectors (RPTPα; effector 3.0 mM)	Phosphatase activity in percent of the value obtained in the absence of effectors (RPTPα; effector 5.0 mM)	Phosphatase activity in percent of the value obtained in the absence of effectors (PTP1B; effector 1.0 mM)	Phosphatase activity in percent of the value obtained in the absence of effectors (PTP1B; effector 3.0 mM)	Phosphatase activity in percent of the value obtained in the absence of effectors (PTP1B; effector 5.0 mM)	Phosphatase activity in percent of the value obtained in the absence of effectors (TCΔC11.PTP; effector 1.0 mM)	Phosphatase activity in percent of the value obtained in the absence of effectors (TCΔC11.PTP; effector 3.0 mM)	Phosphatase activity in percent of the value obtained in the absence of effectors (TCΔC11.PTP; effector 5.0 mM)	Phosphatase activity in percent of the value obtained in the absence of effectors (CD45; effector 1.0 mM)	Phosphatase activity in percent of the value obtained in the absence of effectors (CD45; effector 3.0 mM)	Phosphatase activity in percent of the value obtained in the absence of effectors (CD45; effector 5.0 mM)	Phosphatase activity in percent of the value obtained in the absence of effectors (TC.PTP; effector 1.0 mM)	Phosphatase activity in percent of the value obtained in the absence of effectors (TC.PTP; effector 3.0 mM)	Phosphatase activity in percent of the value obtained in the absence of effectors (TC.PTP; effector 5.0 mM)	further results
CC[C@H](C)[C@H](NC(=O)[C@H](Cc1ccc(O)cc1)NC(=O)[C@H](CC(=O)O)NC(=O)[C@H](CC(N)=O)NC(=O)[C@@H](N)CCC(=O)O)C(=O)N[C@@H](CC(N)=O)C(=O)N[C@@H](C)C(=O)N[C@@H](CO)C(=O)N[C@@H](CC(C)C)C(=O)O (H-ENDYINASL-OH)	–	–	–	–	–	–	–	–	–	–	–	–	–	–	–	Phosphatase activity in percent of the value obtained in the absence of effectors (RPTPα; effector 60 μM): 76%; Phosphatase activity in percent of the value obtained in the absence of effectors (RPTPα; effector 110 μM): 54%; Phosphatase activity in percent of the value obtained in the absence of effectors (RPTPα; effector 210 μM): 30%; Phosphatase activity in percent of the value obtained in the absence of effectors (PTP1B; effector 60 μM): 94%; Phosphatase activity in percent of the value obtained in the absence of effectors (PTP1B; effector 110 μM): 84%; Phosphatase activity in percent of the value obtained in the absence of effectors (PTP1B; effector 210 μM): 58%; Phosphatase activity in percent of the value obtained in the absence of effectors (TCΔC11.PTP; effector 60 μM): 71%; Phosphatase activity in percent of the value obtained in the absence of effectors (TCΔC11.PTP; effector 110 μM): 55%; Phosphatase activity in percent of the value obtained in the absence of effectors (TCΔC11.PTP; effector 210 μM): 46%; Phosphatase activity in percent of the value obtained in the absence of effectors (CD45; effector 60 μM): 99%; Phosphatase activity in percent of the value obtained in the absence of effectors (CD45; effector 110 μM): 92%; Phosphatase activity in percent of the value obtained in the absence of effectors (CD45; effector 210 μM): 83%; Phosphatase activity in percent of the value obtained in the absence of effectors (TC.PTP; effector 60 μM): 92%; Phosphatase activity in percent of the value obtained in the absence of effectors (TC.PTP; effector 110 μM): 89%; Phosphatase activity in percent of the value obtained in the absence of effectors (TC.PTP; effector 210 μM): 79%
[Mg+2] [Mg^2+]	90%	72%	59%	81%	73%	71%	75%	60%	58%	80%	62%	72%	72%	57%	60%	–
[O]=[V]([O-])([O-])[O-] [vanadate]	–	–	–	–	–	–	–	–	–	–	–	–	–	–	–	Phosphatase activity in percent of the value obtained in the absence of effectors (RPTPα; effector 1.0 μM): 62%; Phosphatase activity in percent of the value obtained in the absence of effectors (RPTPα; effector 10 μM): 4%; Phosphatase activity in percent of the value obtained in the absence of effectors (RPTPα; effector 100 μM): 0%; Phosphatase activity in percent of the value obtained in the absence of effectors (CD45; effector 1.0 μM): 66%; Phosphatase activity in percent of the value obtained in the absence of effectors (CD45; effector 10 μM): 17%; Phosphatase activity in percent of the value obtained in the absence of effectors (CD45; effector 100 μM): 4%

Continued, in another order:

Phosphatase activity in percent of the value obtained in the absence of effectors (RPTPα; effector 1.0 mM)	Phosphatase activity in percent of the value obtained in the absence of effectors (RPTPα; effector 3.0 mM)	Phosphatase activity in percent of the value obtained in the absence of effectors (RPTPα; effector 5.0 mM)	Phosphatase activity in percent of the value obtained in the absence of effectors (PTP1B; effector 1.0 mM)	Phosphatase activity in percent of the value obtained in the absence of effectors (PTP1B; effector 3.0 mM)	Phosphatase activity in percent of the value obtained in the absence of effectors (PTP1B; effector 5.0 mM)	Phosphatase activity in percent of the value obtained in the absence of effectors (TCΔC11.PTP; effector 1.0 mM)	Phosphatase activity in percent of the value obtained in the absence of effectors (TCΔC11.PTP; effector 3.0 mM)	Phosphatase activity in percent of the value obtained in the absence of effectors (TCΔC11.PTP; effector 5.0 mM)	Phosphatase activity in percent of the value obtained in the absence of effectors (CD45; effector 1.0 mM)	Phosphatase activity in percent of the value obtained in the absence of effectors (CD45; effector 3.0 mM)	Phosphatase activity in percent of the value obtained in the absence of effectors (CD45; effector 5.0 mM)	Phosphatase activity in percent of the value obtained in the absence of effectors (TC.PTP; effector 1.0 mM)	Phosphatase activity in percent of the value obtained in the absence of effectors (TC.PTP; effector 3.0 mM)	Phosphatase activity in percent of the value obtained in the absence of effectors (TC.PTP; effector 5.0 mM)	SMILES	further results
115%	97%	86%	139%	125%	110%	142%	109%	93%	96%	78%	76%	119%	104%	80%	O=C(O)CN(CCN(CC(=O)O)CC(=O)O)CC(=O)O [EDTA]	–
60%	38%	21%	26%	23%	20%	34%	22%	15%	78%	56%	44%	49%	30%	21%	[Mn+2] [Mn^2+]	–
